{
  "source": "patent US20220362330A1",
  "about": "“Compositions and Methods for Increasing Epithelial Barrier Function” (The Board of Trustees of the Leland Stanford Junior …, priority 2019, published 2022)",
  "key": {"[1]": {"test_system": "genital mucosal permeability", "experiment": "Human tissue permeability assay on biopsy specimens", "parameters": "species or system women", "method": "To confirm the relevance of the mouse model findings, DMPA-mediated changes in mucosal permeability was explored with ectocervical biopsies from women using no hormonal contraceptive and again 1 month after they initiated DMPA.\n[…] biopsy specimens obtained from women were placed in transport media, transferred into sterile 96-well plates, and incubated 45 minutes in a 20 μL solution of PBS containing LY and DR (at the same concentrations used in mouse studies). Tissue was likewise fixed and embedded as detailed for mice. Stratified squamous epithelium, lamina propria, and connective tissue were identified using light microscopy (at 100× magnification), while images obtained at 400× magnification were used to quantify penetration of LY into ectocervical tissue."}, "[2]": {"test_system": "genital mucosal tissue", "experiment": "Entry of CFSE-labeled splenocytes into genital mucosal tissue", "assay_type": "in vivo", "conditions": "CFSE-labeled splenocytes ivag, 12 hours; vs estrus-stage mice", "method": "Estrus-stage or DMPA-treated mice were administered CFSE-labeled splenocytes intravaginally and euthanized 12 hours later. Relative leukocyte infiltration of vaginal mucosal tissue in estrus-stage vs. DMPA-treated mice was evaluated by confocal microscopy.\nThese findings established progestin mediated increases in mucosal permeability promote both passive entry of low molecular weight molecules and incursion of larger-sized cells that are more reliant on energy-dependent processes."}},
  "note": "“Also recorded” adds a separate entry of the source.",
  "data": [
    {"smiles": "CC(=O)O[C@]1(C(C)=O)CC[C@H]2[C@@H]3C[C@H](C)C4=CC(=O)CC[C@]4(C)[C@H]3CC[C@@]21C", "note": "[DMPA]", "values": [
      {"measurement": "mucosal permeability", "setting": "[1]; specimens collected after initiating hormonal contraceptive", "value": "increased mucosal permeability"},
      {"measurement": "correlation between serum DMPA levels and genital mucosal permeability", "setting": "[1]; women", "value": "strong positive correlation"},
      {"measurement": "leukocyte entry into genital tissue", "setting": "[2]", "value": "facilitates entry of leukocytes into genital mucosal tissue; also recorded: promoted leukocyte entry into genital tissue"}
    ]}
  ]
}
